In PubChem BioAssay (NCI):
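Protocol summary: plate cells (96-well), add compound at 5 concentrations, incubate 48 h, interpolate endpoints linearly. GI50 = concentration required for 50% inhibition of growth. Definition used: TGI = concentration required for complete inhibition of growth.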

Each compound was assayed on HOP-18 NSCLC (assay: NCI-60 cell line screen, 48 h).

SMILES	TGI [µM]	GI50 [µM]
O=C1/C(=C/c2ccc(O)c(O)c2)CCC/C1=C\c1ccc(O)c(O)c1	10.4	–
Cc1c(C(=O)C/C(=N/NC(=O)c2ccccc2O)C(=O)Nc2ccccc2C(C)C)[n+](=O)c2ccccc2n1[O-]	> 100	–
CCCCCCCCCCCC(=O)OCCOCCOCCOCCOCCOCc1ccccc1	> 100	–
CCCC1C(=O)CCc2c(OC)ccc(OC)c21 (stereo not given)	> 100	–
COC(=O)C1(C(C)C)CCc2c(OC)ccc(OC)c2C1=O (stereo not given)	> 100	–
Cc1ccc(S(=O)(=O)OC[C@@H]2CO2)cc1	> 100	–
CCn1c(C)nn2c(=O)c3ccccc3nc2c1=O	> 100	–
CCOC(=O)CCC1(C(=O)OCC)CCCCC1=O (stereo not given)	> 100	–
Cc1nc2c(ccc3ncccc32)[nH]1	> 100	–
CC(=O)[CH-]C(=O)c1ccccc1.CC(=O)[CH-]C(=O)c1ccccc1.CN(C)c1ccc([O-])cc1.CN(C)c1ccc([O-])cc1.Cl.[Ti+4]	> 31.6	23.1
CC1(C)C(=O)/C=C\C(=O)C(C)(C)C2=CC=C(O2)C(C)(C)C(=O)/C=C\C(=O)C(C)(C)C2=CC=C1O2	> 100	–
NC(=O)NO.O.O.O.O.O.O.O.O.O.O.O.[Ge].[Ge].[Ge].[Ge].[Ge].[O]=[Ge].[O]=[Ge].[O]=[Ge].[O]=[Ge].[O]=[Ge][OH]	> 100	–
CCC[CH2][Sn]([CH2]CCC)([S]c1cccc2cccnc12)[S]c1cccc2cccnc12	0.605	0.264
OCC1=CC(NC2CC(CO)C(O)C(O)C2O)C(O)C(O)C1O (stereo not given)	> 100	–
CNS(=O)(=O)NNS(=O)(=O)c1ccccc1	> 100	–
NC1=NCCC1(c1ccccc1)c1ccccn1 (stereo not given)	> 100	–
CNC(=S)OCCC(C)CCCC(C)C (stereo not given)	31.3	–
COC(=O)/C(C#N)=C1\NC(=O)c2ccccc21	> 100	–
Cc1cnc(NCCCN(C)C)c2c1[nH]c1ccc3cc(O)ccc3c12	5.97	–

The compounds below were run on DLD-1 colon (assay: NCI-60 cell line screen, 48 h).

SMILES	TGI [µM]	GI50 [µM]
O=C1/C(=C/c2ccc(O)c(O)c2)CCC/C1=C\c1ccc(O)c(O)c1	7.22	–
Cc1c(C(=O)C/C(=N/NC(=O)c2ccccc2O)C(=O)Nc2ccccc2C(C)C)[n+](=O)c2ccccc2n1[O-]	> 100	–
CCCCCCCCCCCC(=O)OCCOCCOCCOCCOCCOCc1ccccc1	> 100	–
CCCC1C(=O)CCc2c(OC)ccc(OC)c21 (stereo not given)	> 100	–
O=C(Nc1nc2ccc([N+](=O)[O-])cc2s1)C(=O)C(C1OC(=O)c2ccccc21)[N+](=O)[O-] (stereo not given)	> 100	–
COC(=O)C1(C(C)C)CCc2c(OC)ccc(OC)c2C1=O (stereo not given)	> 100	–
Cc1ccc(S(=O)(=O)OC[C@@H]2CO2)cc1	> 100	–
CCn1c(C)nn2c(=O)c3ccccc3nc2c1=O	> 100	–
CCOC(=O)CCC1(C(=O)OCC)CCCCC1=O (stereo not given)	> 100	–
Cc1nc2c(ccc3ncccc32)[nH]1	> 100	–
CC(=O)[CH-]C(=O)c1ccccc1.CC(=O)[CH-]C(=O)c1ccccc1.CN(C)c1ccc([O-])cc1.CN(C)c1ccc([O-])cc1.Cl.[Ti+4]	> 31.6	15.6
NC(=O)NO.O.O.O.O.O.O.O.O.O.O.O.[Ge].[Ge].[Ge].[Ge].[Ge].[O]=[Ge].[O]=[Ge].[O]=[Ge].[O]=[Ge].[O]=[Ge][OH]	> 100	–
CCC[CH2][Sn]([CH2]CCC)([S]c1cccc2cccnc12)[S]c1cccc2cccnc12	0.382	0.172
OCC1=CC(NC2CC(CO)C(O)C(O)C2O)C(O)C(O)C1O (stereo not given)	> 100	–
CCOC(=O)C(C)(C)Oc1ccc2c(-c3ccccc3)cc(=O)oc2c1	> 100	–
CNS(=O)(=O)NNS(=O)(=O)c1ccccc1	> 100	–
Cc1cc(NS(=O)(=O)c2ccc(Nc3c4ccccc4nc4c(C(=O)N5CCN(CCOS(C)(=O)=O)CC5)cccc34)cc2)no1	> 100	–
CNC(=S)OCCC(C)CCCC(C)C (stereo not given)	28.9	–
COC(=O)/C(C#N)=C1\NC(=O)c2ccccc21	> 100	–
Cc1cnc(NCCCN(C)C)c2c1[nH]c1ccc3cc(O)ccc3c12	3.7	–

Each compound was assayed on KM20L2 colon (assay: NCI-60 cell line screen, 48 h).

SMILES	TGI [µM]	GI50 [µM]
O=C1/C(=C/c2ccc(O)c(O)c2)CCC/C1=C\c1ccc(O)c(O)c1	23.8	–
Cc1c(C(=O)C/C(=N/NC(=O)c2ccccc2O)C(=O)Nc2ccccc2C(C)C)[n+](=O)c2ccccc2n1[O-]	> 100	–
CCCCCCCCCCCC(=O)OCCOCCOCCOCCOCCOCc1ccccc1	> 100	–
CCCC1C(=O)CCc2c(OC)ccc(OC)c21 (stereo not given)	> 100	–
O=C(Nc1nc2ccc([N+](=O)[O-])cc2s1)C(=O)C(C1OC(=O)c2ccccc21)[N+](=O)[O-] (stereo not given)	> 100	–
COC(=O)C1(C(C)C)CCc2c(OC)ccc(OC)c2C1=O (stereo not given)	> 100	–
Cc1ccc(S(=O)(=O)OC[C@@H]2CO2)cc1	> 100	–
CCn1c(C)nn2c(=O)c3ccccc3nc2c1=O	> 100	–
CCOC(=O)CCC1(C(=O)OCC)CCCCC1=O (stereo not given)	> 100	–
Cc1nc2c(ccc3ncccc32)[nH]1	> 100	–
CC(=O)[CH-]C(=O)c1ccccc1.CC(=O)[CH-]C(=O)c1ccccc1.CN(C)c1ccc([O-])cc1.CN(C)c1ccc([O-])cc1.Cl.[Ti+4]	> 31.6	20.4
CC1(C)C(=O)/C=C\C(=O)C(C)(C)C2=CC=C(O2)C(C)(C)C(=O)/C=C\C(=O)C(C)(C)C2=CC=C1O2	> 100	–
NC(=O)NO.O.O.O.O.O.O.O.O.O.O.O.[Ge].[Ge].[Ge].[Ge].[Ge].[O]=[Ge].[O]=[Ge].[O]=[Ge].[O]=[Ge].[O]=[Ge][OH]	> 100	–
CN(C)C(=S)N=C(Nc1ccccc1)Nc1ccccc1	> 100	–
CCC[CH2][Sn]([CH2]CCC)([S]c1cccc2cccnc12)[S]c1cccc2cccnc12	0.474	0.215
CCOC(=O)C(C)(C)Oc1ccc2c(-c3ccccc3)cc(=O)oc2c1	> 100	–
CNS(=O)(=O)NNS(=O)(=O)c1ccccc1	> 100	–
Cc1cc(NS(=O)(=O)c2ccc(Nc3c4ccccc4nc4c(C(=O)N5CCN(CCOS(C)(=O)=O)CC5)cccc34)cc2)no1	> 100	–
NC1=NCCC1(c1ccccc1)c1ccccn1 (stereo not given)	> 100	–
CNC(=S)OCCC(C)CCCC(C)C (stereo not given)	30	–
COC(=O)/C(C#N)=C1\NC(=O)c2ccccc21	> 100	–
Cc1cnc(NCCCN(C)C)c2c1[nH]c1ccc3cc(O)ccc3c12	2.29	–

The compounds below were run on DMS 114 small cell lung (assay: NCI-60 cell line screen, 48 h).

SMILES	TGI [µM]	GI50 [µM]
Cc1c(C(=O)C/C(=N/NC(=O)c2ccccc2O)C(=O)Nc2ccccc2C(C)C)[n+](=O)c2ccccc2n1[O-]	60.8	–
CCCCCCCCCCCC(=O)OCCOCCOCCOCCOCCOCc1ccccc1	> 100	–
CCCC1C(=O)CCc2c(OC)ccc(OC)c21 (stereo not given)	> 100	–
COC(=O)C1(C(C)C)CCc2c(OC)ccc(OC)c2C1=O (stereo not given)	> 100	–
CCn1c(C)nn2c(=O)c3ccccc3nc2c1=O	> 100	–
CCOC(=O)CCC1(C(=O)OCC)CCCCC1=O (stereo not given)	> 100	–
Cc1nc2c(ccc3ncccc32)[nH]1	> 100	–
CN(C)C(=S)N=C(Nc1ccccc1)Nc1ccccc1	> 100	–
CCC[CH2][Sn]([CH2]CCC)([S]c1cccc2cccnc12)[S]c1cccc2cccnc12	0.319	0.129
OCC1=CC(NC2CC(CO)C(O)C(O)C2O)C(O)C(O)C1O (stereo not given)	> 100	–
CCOC(=O)C(C)(C)Oc1ccc2c(-c3ccccc3)cc(=O)oc2c1	64.1	–
CNS(=O)(=O)NNS(=O)(=O)c1ccccc1	> 100	–
Cc1cc(NS(=O)(=O)c2ccc(Nc3c4ccccc4nc4c(C(=O)N5CCN(CCOS(C)(=O)=O)CC5)cccc34)cc2)no1	> 100	–
NC1=NCCC1(c1ccccc1)c1ccccn1 (stereo not given)	> 100	–
COC(=O)/C(C#N)=C1\NC(=O)c2ccccc21	> 100	–
Cc1cnc(NCCCN(C)C)c2c1[nH]c1ccc3cc(O)ccc3c12	0.993	–

What follows are compounds tested on MDA-N (assay: NCI-60 cell line screen, 48 h).

SMILES	TGI [µM]	GI50 [µM]
COc1cc2c(c3oc4c(O)cccc4c(=O)c13)CC(C(C)(O)CO)O2 (stereo not given)	> 100	–
O=C1/C(=C/c2ccc(O)c(O)c2)CCC/C1=C\c1ccc(O)c(O)c1	14.6	–
COC([CH2][Hg][n]1cnc2c1c(=O)n(C)c(=O)n2C)CN1C(=O)c2ccccc2S1(=O)=O (stereo not given)	> 100	> 100
COc1ccc(CC2c3cc4c(cc3CCN2C)OCO4)c(C=O)c1OC (stereo not given)	> 100	–
Cc1ccc(Cl)c2c(N=Nc3ccccc3[N+](=O)[O-])c(O)[nH]c12	> 100	–
C=CCOc1ccc2c(C)cc(=O)oc2c1C	> 100	–
O=C(CCNC12CC3CC(CC(C3)C1)C2)c1ccccc1	30.5	–
Cc1ccsc1C(=S)Nc1ccc(Cl)c(/C=N/OC(C)(C)C)c1	> 100	–
CC(C)=CCC\C(C)=C/C=C/C(C)=C\C=C\C(C)=C/C=C/C=C(C)\C=C\C=C(C)/C=C/C=C(/C)CCC=C(C)C	> 100	–
NC(N)=NS(=O)(=O)c1ccc(Nc2c3ccccc3nc3c(C(=O)NCCO)cccc23)cc1	–	17.8
COc1cccc(C2c3cc4c(cc3OC(C)(N3CCCC3)C2C)OCO4)c1O (stereo not given)	5.81	–
COC(=O)CC[N+]1=CCC(c2ccccc2)(c2ccccc2)O1	> 100	–
CCOC(=O)Cn1c(C(F)(F)F)nc2nc(Cl)c(Cl)nc21	> 100	–
Cc1cnc(NCCCN(C)C)c2c1[nH]c1ccc3cc(O)ccc3c12	2.21	–
Fc1ccc(NC(=S)SCc2ccc3c(c2)OCO3)cc1F	34.7	–

These compounds were tested on MDA-MB-435 (assay: NCI-60 cell line screen, 48 h).

SMILES	GI50 [µM]	TGI [µM]
CN(C)c1ccc(/C=C\C2=[N+](C)c3ccccc3C2(C)C)cc1	0.422	9.35
COc1cc2c(c3oc4c(O)cccc4c(=O)c13)CC(C(C)(O)CO)O2 (stereo not given)	–	> 100
CC(=O)OC1OC([C@@H]2c3cccc(O)c3C(=O)c3c(O)cc(C)cc32)C(O)C(O)C1O (stereo not given in full)	< 0.0185	0.691
Nc1nc(-n2c(-c3ccccc3)nc3c(Br)cc(Br)cc3c2=O)nnc1-c1cccc(Cl)c1Cl	2.18	6.81
O=C1/C(=C/c2ccc(O)c(O)c2)CCC/C1=C\c1ccc(O)c(O)c1	–	16.7
COC(=O)/C=C1\S/C(=N\NC(=O)c2cc3ccc2/C=C\c2ccc(cc2)/C=C\3)N(c2ccccc2)C1=O	5.44	> 100
COC([CH2][Hg][n]1cnc2c1c(=O)n(C)c(=O)n2C)CN1C(=O)c2ccccc2S1(=O)=O (stereo not given)	> 100	> 100
COc1ccc(CC2c3cc4c(cc3CCN2C)OCO4)c(C=O)c1OC (stereo not given)	–	> 100
CN1CCCCC1CCN1c2ccccc2Sc2ccc(Cl)cc21 (stereo not given)	1.86	4.04
C=C(C)C(OC)C(O)CC1(C)CC(O)CC(C)(C2CCC3OC(C4(C)CCC(Br)C(C)(C)O4)CCC3(C)O2)O1 (stereo not given)	19.8	46.3
Cc1cc(-c2nc(C(=O)Nc3cc4oc(N5CCOCC5)nc4nc3N3CC[C@@H](O)C3)co2)ccn1	40.7	> 100
COc1cc2c(cc1OCCCCN1CCN(CC(=O)Nc3ccc(Cl)cc3C(=O)c3ccccc3Cl)CC1)N=CC1CCCN1C2=O (stereo not given)	0.188	0.367
Cc1ccc(Cl)c2c(N=Nc3ccccc3[N+](=O)[O-])c(O)[nH]c12	–	35.3
FC(F)(F)c1cccc(Nc2nc(-c3ccccc3)nc3ncccc23)c1	3.77	22.8
OC1CSSC1Cn1cnc2c(Nc3ccc(OCc4cccc(F)c4)c(Cl)c3)ncnc21 (stereo not given)	0.35	0.788
C=CCOc1ccc2c(C)cc(=O)oc2c1C	–	> 100
Nc1c(C(=O)c2cccc(CCS(N)(=O)=O)c2)cnn1-c1ccc(F)cc1	> 25	> 25
C=CCO[C@H]1CO[C@H]2[C@@H]1OC[C@@H]2Oc1ccc(Nc2ccnc(Nc3ccc(O[C@H]4CO[C@H]5[C@@H]4OC[C@@H]5OCC=C)c(Cl)c3)n2)cc1Cl	1.67	3.06
OCc1cc2ccccc2c2c3c(ccc12)OCO3	39.3	160
COc1cnc2c(c1)C(=O)c1c-2n(CCCN2CCOCC2)c(=O)c2cc(F)ccc12	0.454	> 100
